Test results reported in ChEMBL document CHEMBL1909046, “DrugMatrix in vitro pharmacology data”.

How the values were obtained:
[1] = molecular target: T1, Alpha-2A adrenergic receptor (Homo sapiens, UniProt P08913); format: cell membranes, Sf9, Membrane; settings: sf9; further: in other assays of this panel Not Active means under 50% inhibition at 10 µM
T1 sequence (P08913 whole entry): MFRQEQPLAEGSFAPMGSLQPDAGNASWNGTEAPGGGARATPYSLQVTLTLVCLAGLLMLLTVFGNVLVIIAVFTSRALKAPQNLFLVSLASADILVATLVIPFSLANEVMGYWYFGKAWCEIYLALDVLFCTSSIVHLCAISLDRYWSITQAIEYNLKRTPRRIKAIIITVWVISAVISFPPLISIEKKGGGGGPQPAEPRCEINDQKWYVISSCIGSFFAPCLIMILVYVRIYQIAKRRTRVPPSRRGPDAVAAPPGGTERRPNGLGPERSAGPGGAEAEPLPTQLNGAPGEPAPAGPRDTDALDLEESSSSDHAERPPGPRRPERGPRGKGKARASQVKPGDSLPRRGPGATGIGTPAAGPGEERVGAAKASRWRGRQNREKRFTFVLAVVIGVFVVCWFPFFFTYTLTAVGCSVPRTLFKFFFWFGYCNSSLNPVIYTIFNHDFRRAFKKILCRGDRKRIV

[2] = molecular target: T2, Alpha-2C adrenergic receptor (Homo sapiens, UniProt P18825); test: DRUGMATRIX: Adrenergic Alpha-2C radioligand binding (ligand: [3H] MK-912); format: cell membranes, Sf9, Membrane; settings: sf9
T2 sequence (P18825 whole entry): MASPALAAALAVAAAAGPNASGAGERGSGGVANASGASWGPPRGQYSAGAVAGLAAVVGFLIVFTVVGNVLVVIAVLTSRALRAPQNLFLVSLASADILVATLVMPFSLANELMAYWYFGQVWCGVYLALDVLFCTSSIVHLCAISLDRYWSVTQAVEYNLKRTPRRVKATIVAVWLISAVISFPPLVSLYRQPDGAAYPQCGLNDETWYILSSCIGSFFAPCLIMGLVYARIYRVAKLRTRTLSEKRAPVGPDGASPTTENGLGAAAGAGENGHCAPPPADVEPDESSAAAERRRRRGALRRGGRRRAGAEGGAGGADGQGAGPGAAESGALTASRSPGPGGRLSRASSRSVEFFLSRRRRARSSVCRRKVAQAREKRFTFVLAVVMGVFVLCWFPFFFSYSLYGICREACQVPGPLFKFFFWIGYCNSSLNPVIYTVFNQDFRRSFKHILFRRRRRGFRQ

[3] = molecular target: Beta-1 adrenergic receptor (Homo sapiens, UniProt P08588); test: DRUGMATRIX: Adrenergic beta1 radioligand binding (ligand: [125I] Cyanopindolol); format: cell membranes, CHO-K1, Membrane; settings: cho-k1; Not Active = under 50% inhibition at 10 µM
Beta-1 adrenergic receptor, sequence (P08588 whole entry): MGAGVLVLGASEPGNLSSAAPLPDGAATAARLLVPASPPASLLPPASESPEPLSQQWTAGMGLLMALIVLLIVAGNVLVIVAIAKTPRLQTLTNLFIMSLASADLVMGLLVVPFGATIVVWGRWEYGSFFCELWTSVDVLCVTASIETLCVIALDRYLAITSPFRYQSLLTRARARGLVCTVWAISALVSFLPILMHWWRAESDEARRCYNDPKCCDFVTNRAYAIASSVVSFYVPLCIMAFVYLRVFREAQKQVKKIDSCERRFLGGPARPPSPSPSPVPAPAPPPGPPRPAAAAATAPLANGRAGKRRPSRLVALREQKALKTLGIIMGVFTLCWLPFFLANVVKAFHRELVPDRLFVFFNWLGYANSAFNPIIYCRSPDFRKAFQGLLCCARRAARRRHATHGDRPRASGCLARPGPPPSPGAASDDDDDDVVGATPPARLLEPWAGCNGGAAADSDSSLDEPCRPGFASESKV

[4] = molecular target: T3, Type-2 angiotensin II receptor (Homo sapiens, UniProt P50052); format: cell-based; settings: cho-k1; further: in other assays of this panel Not Active means under 50% inhibition at 10 µM
T3 sequence (P50052 whole entry): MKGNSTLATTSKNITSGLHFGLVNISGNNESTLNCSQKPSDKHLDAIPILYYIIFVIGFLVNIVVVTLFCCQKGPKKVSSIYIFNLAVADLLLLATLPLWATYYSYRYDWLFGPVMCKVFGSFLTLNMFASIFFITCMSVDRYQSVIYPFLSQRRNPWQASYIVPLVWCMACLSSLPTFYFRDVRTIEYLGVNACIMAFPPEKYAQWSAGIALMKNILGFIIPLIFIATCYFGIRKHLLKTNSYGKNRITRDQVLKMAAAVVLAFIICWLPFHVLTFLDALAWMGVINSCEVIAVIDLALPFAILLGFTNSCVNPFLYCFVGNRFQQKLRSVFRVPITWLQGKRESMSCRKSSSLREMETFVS

[5] = DRUGMATRIX: Calcium Channel Type L, Phenylalkylamine radioligand binding (ligand: [3H] (-)-Desmethoxyverapamil (D-888)); format: cell membranes, Rattus norvegicus, Wistar, Brain, Membrane; settings: Not Active = under 50% inhibition at 10 µM
[6] = DRUGMATRIX: GABAA, Flunitrazepam, Central radioligand binding (ligand: [3H] Flunitrazepam); format: cell membranes, Rattus norvegicus, Wistar, Brain, Membrane; settings: Not Active = under 50% inhibition at 10 µM
Insulin receptor = Insulin receptor (Rattus norvegicus, UniProt P15127); format: cell membranes, Wistar, Liver, Membrane; further: in other assays of this panel Not Active means under 50% inhibition at 10 µM
Insulin receptor, sequence (P15127 27-759 limits assumed): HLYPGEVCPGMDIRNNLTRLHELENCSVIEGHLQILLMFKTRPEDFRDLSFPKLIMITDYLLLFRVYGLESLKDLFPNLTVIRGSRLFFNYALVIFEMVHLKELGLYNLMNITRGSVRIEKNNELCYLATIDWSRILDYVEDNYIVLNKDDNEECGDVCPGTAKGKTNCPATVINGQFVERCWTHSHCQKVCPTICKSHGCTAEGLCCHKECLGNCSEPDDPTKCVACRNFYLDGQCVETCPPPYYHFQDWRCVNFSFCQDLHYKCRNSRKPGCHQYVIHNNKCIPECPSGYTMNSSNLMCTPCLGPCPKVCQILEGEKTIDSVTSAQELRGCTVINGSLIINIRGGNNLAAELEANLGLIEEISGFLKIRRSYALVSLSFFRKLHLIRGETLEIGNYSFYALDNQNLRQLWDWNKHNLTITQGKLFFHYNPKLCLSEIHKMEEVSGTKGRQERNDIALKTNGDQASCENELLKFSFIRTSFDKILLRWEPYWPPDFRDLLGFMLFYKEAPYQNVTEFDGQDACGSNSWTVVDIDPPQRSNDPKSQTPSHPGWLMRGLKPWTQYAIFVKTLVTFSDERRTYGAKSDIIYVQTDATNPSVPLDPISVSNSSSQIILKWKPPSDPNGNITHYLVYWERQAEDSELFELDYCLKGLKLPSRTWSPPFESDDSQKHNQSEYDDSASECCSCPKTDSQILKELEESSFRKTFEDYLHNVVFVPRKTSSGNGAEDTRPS
Insulin receptor, sequence (P15127 764-1383 limits assumed): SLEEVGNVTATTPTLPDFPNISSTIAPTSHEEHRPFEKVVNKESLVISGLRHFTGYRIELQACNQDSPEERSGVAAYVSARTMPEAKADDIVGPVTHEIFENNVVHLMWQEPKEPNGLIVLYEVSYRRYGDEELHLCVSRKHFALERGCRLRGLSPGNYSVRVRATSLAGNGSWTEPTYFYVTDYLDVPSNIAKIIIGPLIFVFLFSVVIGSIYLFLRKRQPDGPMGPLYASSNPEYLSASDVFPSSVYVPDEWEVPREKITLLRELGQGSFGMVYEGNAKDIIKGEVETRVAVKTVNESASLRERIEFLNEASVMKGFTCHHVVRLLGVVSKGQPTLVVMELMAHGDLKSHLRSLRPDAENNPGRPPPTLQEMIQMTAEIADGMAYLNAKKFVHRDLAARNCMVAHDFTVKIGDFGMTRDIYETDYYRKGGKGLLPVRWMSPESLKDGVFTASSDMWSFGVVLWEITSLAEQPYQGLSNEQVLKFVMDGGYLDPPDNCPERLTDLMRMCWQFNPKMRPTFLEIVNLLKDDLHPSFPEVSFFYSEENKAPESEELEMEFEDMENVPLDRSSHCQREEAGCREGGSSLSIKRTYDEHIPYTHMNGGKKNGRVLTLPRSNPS

[7] = molecular target: T4, Neuropeptide Y receptor type 2 (Homo sapiens, UniProt P49146); format: cell membranes, Membrane; settings: kan-ts; further: in other assays of this panel Not Active means under 50% inhibition at 10 µM
T4 sequence (P49146 whole entry): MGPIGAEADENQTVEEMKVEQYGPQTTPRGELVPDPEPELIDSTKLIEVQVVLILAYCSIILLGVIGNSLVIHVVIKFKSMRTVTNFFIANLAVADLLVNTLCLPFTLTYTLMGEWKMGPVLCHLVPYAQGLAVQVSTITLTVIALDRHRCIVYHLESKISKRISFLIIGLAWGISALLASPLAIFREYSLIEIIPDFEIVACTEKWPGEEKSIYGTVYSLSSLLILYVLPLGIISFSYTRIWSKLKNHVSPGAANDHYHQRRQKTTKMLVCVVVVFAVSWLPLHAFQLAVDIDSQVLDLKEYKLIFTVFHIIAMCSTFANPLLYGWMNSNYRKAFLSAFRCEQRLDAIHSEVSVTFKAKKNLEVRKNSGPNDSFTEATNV

[8] = molecular target: Receptor tyrosine-protein kinase erbB-2 (Homo sapiens, UniProt P04626); test: biochemical; format: cell-based, Insect cells; settings: insect cells
Receptor tyrosine-protein kinase erbB-2, sequence (P04626 whole entry): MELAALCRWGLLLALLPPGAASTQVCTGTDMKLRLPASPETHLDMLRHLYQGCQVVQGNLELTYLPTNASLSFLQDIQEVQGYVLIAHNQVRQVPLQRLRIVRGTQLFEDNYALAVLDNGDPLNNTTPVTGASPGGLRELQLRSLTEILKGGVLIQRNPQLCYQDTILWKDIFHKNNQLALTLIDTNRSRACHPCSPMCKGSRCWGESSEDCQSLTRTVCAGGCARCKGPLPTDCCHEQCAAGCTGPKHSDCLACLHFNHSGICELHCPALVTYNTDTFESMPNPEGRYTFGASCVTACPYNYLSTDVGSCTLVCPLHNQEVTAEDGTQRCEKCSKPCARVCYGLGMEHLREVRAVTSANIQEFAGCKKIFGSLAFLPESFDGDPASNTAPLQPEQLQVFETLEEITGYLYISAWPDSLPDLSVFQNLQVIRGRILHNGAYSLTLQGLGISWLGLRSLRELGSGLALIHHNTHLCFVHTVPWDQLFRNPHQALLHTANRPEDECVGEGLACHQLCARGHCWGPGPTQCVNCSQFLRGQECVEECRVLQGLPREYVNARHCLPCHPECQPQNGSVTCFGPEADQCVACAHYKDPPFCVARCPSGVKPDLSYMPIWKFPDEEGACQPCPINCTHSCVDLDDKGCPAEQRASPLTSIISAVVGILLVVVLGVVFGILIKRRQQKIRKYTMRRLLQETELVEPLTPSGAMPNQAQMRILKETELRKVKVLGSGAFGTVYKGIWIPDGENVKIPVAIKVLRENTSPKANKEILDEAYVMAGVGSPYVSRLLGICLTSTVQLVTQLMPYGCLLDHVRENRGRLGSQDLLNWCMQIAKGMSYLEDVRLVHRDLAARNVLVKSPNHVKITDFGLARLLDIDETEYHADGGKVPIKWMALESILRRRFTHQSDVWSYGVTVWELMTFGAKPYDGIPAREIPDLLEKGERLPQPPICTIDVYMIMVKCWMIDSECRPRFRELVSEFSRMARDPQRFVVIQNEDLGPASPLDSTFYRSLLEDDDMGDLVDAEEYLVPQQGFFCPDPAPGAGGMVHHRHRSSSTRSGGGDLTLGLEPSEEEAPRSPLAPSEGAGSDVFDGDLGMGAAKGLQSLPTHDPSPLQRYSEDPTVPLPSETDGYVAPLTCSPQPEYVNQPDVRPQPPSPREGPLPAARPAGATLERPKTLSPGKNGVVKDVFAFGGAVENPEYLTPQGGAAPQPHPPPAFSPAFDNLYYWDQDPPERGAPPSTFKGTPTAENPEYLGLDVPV

[9] = molecular target: 5-hydroxytryptamine receptor 1B (Rattus norvegicus, UniProt P28564); format: cell membranes, Wistar, Cerebral cortex, Membrane; further: in other assays of this panel Not Active means under 50% inhibition at 10 µM
5-hydroxytryptamine receptor 1B, sequence (P28564 whole entry): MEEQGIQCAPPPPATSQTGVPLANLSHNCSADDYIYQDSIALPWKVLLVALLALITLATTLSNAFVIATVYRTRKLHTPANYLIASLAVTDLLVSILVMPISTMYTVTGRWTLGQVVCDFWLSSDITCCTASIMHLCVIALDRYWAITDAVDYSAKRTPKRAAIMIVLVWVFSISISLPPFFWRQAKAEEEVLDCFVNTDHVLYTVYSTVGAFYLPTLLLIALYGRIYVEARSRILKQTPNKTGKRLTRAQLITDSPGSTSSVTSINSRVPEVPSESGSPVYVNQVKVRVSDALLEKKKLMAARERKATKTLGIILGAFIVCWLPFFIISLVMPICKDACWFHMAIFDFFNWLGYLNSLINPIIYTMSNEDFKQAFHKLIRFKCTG

Adenosine receptor A1 = molecular target: T5, Adenosine receptor A1 (Homo sapiens, UniProt P30542); format: cell membranes, CHO, Membrane; settings: cho
T5 sequence (P30542 whole entry): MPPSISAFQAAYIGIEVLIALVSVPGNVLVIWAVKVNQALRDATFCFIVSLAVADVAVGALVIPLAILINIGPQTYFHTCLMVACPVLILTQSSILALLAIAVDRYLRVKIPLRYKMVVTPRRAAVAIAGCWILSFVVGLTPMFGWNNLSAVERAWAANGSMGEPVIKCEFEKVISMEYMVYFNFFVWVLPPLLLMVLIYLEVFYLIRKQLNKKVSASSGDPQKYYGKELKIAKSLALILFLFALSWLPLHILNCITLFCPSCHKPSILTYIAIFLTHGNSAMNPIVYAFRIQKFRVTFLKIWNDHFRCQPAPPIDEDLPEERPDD

[10] = molecular target: Voltage-gated inwardly rectifying potassium channel KCNH2 (Homo sapiens, UniProt Q12809); settings: hek293; further: in other assays of this panel Not Active means under 50% inhibition at 10 µM
Voltage-gated inwardly rectifying potassium channel KCNH2, sequence (Q12809 whole entry): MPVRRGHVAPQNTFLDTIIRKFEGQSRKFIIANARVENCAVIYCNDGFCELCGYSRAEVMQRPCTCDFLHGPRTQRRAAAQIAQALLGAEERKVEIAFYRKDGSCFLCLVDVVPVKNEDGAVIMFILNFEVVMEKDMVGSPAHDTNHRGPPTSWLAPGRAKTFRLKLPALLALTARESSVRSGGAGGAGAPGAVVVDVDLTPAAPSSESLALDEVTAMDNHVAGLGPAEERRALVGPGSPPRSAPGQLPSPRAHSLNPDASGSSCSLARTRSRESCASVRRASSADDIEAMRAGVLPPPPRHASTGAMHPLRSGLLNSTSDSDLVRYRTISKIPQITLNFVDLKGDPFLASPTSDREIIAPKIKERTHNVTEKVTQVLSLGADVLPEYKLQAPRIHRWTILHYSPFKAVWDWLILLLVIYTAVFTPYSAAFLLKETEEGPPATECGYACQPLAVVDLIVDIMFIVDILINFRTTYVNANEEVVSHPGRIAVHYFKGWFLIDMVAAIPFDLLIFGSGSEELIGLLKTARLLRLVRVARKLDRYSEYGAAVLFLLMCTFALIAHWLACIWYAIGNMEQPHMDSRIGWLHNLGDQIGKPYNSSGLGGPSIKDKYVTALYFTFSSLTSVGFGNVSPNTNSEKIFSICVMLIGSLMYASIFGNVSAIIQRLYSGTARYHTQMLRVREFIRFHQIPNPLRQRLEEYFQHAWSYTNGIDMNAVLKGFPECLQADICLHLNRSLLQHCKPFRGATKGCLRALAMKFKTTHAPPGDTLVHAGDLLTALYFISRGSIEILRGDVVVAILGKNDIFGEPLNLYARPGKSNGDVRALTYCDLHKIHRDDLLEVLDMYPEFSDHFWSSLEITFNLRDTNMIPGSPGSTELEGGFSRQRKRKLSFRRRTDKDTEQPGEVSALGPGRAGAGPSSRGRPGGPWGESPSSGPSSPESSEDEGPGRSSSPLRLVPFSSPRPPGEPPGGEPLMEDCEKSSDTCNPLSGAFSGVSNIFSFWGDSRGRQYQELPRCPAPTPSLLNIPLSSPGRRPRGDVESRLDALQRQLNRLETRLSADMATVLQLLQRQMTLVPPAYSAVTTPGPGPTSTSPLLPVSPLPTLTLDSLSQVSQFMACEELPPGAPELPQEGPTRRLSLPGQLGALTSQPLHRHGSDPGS

N#C[C@H](O[C@@H]1O[C@H](CO[C@@H]2O[C@H](CO)[C@@H](O)[C@H](O)[C@H]2O)[C@@H](O)[C@H](O)[C@H]1O)c1ccccc1 [AMYGDALIN]
Not Active: IC50 [1] | IC50 [2] | IC50 [3] | IC50 [4] | IC50 [5] | Ki [5] | IC50 [6] | Ki [6] | IC50 (Insulin receptor) | IC50 [7] | IC50 [8] | IC50 [9] | IC50 (Adenosine receptor A1) | IC50 [10] | Ki [10]

C=C1[C@@H]2CCC3[C@@](CC[C@@H]4[C@H](C(=O)O)C[C@@H](O[C@@H]5O[C@H](CO)[C@@H](OS(=O)(=O)[O-])[C@H](OS(=O)(=O)[O-])[C@H]5OC(=O)CC(C)C)C[C@@]34C)(C2)[C@@H]1O.[K+].[K+] (stereo not given in full) [ATRACTYLOSIDE]
Not Active: IC50 [1] | IC50 [2] | IC50 [3] | IC50 [4] | IC50 [5] | Ki [5] | IC50 [6] | Ki [6] | IC50 (Insulin receptor) | IC50 [7] | IC50 [8] | IC50 [9] | IC50 (Adenosine receptor A1) | IC50 [10] | Ki [10]

Cn1cnc([N+](=O)[O-])c1Sc1ncnc2nc[nH]c12 [AZATHIOPRINE]
Not Active: IC50 [1] | IC50 [2] | IC50 [3] | IC50 [4] | IC50 [5] | Ki [5] | IC50 [6] | Ki [6] | IC50 (Insulin receptor) | IC50 [7] | IC50 [8] | IC50 [9] | IC50 (Adenosine receptor A1) | IC50 [10] | Ki [10]

CC1(C)S[C@@H]2[C@H](NC(=O)[C@H](NC(=O)N3CCNC3=O)c3ccccc3)C(=O)N2[C@H]1C(=O)O [AZLOCILLIN]
Not Active: IC50 [1] | IC50 [2] | IC50 [3] | IC50 [4] | IC50 [5] | Ki [5] | IC50 [6] | Ki [6] | IC50 (Insulin receptor) | IC50 [7] | IC50 [8] | IC50 [9] | IC50 (Adenosine receptor A1) | IC50 [10] | Ki [10]

CCOC(=O)c1ccc(N)cc1 [BENZOCAINE]
Not Active: IC50 [1] | IC50 [2] | IC50 [3] | IC50 [4] | IC50 [5] | Ki [5] | IC50 [6] | Ki [6] | IC50 (Insulin receptor) | IC50 [7] | IC50 [8] | IC50 [9] | IC50 (Adenosine receptor A1) | IC50 [10] | Ki [10]

OCc1ccccc1 [BENZYL ALCOHOL]
Not Active: IC50 [1] | IC50 [2] | IC50 [3] | IC50 [4] | IC50 [5] | Ki [5] | IC50 [6] | Ki [6] | IC50 (Insulin receptor) | IC50 [7] | IC50 [8] | IC50 [9] | IC50 (Adenosine receptor A1) | IC50 [10] | Ki [10]

CC(C)(Oc1ccc(CCNC(=O)c2ccc(Cl)cc2)cc1)C(=O)O [BEZAFIBRATE]
Not Active: IC50 [1] | IC50 [2] | IC50 [3] | IC50 [4] | IC50 [5] | Ki [5] | IC50 [6] | Ki [6] | IC50 (Insulin receptor) | IC50 [7] | IC50 [8] | IC50 [9] | IC50 (Adenosine receptor A1) | IC50 [10] | Ki [10]
